Counter-ions that a name gives are not always drawn. Active and inactive are the calls of the source. No cut-off for these calls is given here.
How the values were obtained:
[1] = molecular target: T1, 5-hydroxytryptamine receptor 2C (Homo sapiens, UniProt P28335); experiment: Binding affinity to 5-HT2CR (unknown origin)
T1 sequence (P28335 whole entry): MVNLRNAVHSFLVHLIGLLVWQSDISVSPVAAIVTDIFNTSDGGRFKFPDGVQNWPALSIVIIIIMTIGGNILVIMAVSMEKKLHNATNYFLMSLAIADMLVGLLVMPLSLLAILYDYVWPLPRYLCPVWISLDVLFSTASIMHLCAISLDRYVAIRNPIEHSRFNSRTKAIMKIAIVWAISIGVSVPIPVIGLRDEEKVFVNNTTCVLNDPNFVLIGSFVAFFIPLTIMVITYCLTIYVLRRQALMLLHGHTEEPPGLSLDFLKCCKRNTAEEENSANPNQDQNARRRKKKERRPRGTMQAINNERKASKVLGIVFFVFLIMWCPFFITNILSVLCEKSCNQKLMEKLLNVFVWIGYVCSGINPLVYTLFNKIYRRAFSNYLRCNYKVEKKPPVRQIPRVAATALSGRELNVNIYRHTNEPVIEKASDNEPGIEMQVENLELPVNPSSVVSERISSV

Mus musculus [2] = experiment: Induction of hypothermia in CD-1 mouse assessed as change in body temperature at 15 mg/kg, ip measured after 60 mins by thermometric method (reference value: -0.2 to 0.5 deg C); format: functional, organism-based
Mus musculus [3] = experiment: Induction of hypothermia in CD-1 mouse assessed as change in body temperature at 20 mg/kg, ip measured after 30 mins by thermometric method; format: functional, organism-based
Mus musculus [4] = experiment: Induction of hypothermia in CD-1 mouse assessed as change in body temperature at 15 mg/kg, ip measured after 30 mins by thermometric method (reference value: -0.2 to 0.4 deg C); format: functional, organism-based
Mus musculus [5] = experiment: Induction of hypothermia in CD-1 mouse assessed as change in body temperature at 10 mg/kg, ip measured after 120 mins by thermometric method; format: functional, organism-based
Mus musculus [6] = experiment: Induction of hypothermia in CD-1 mouse assessed as change in body temperature at 5 mg/kg, ip measured after 90 mins by thermometric method; format: functional, organism-based
hERG (KCNH2) [7] = molecular target: T2, hERG (KCNH2) (Homo sapiens, UniProt Q12809); experiment: Inhibition of human ERG at 1 uM by automated patch-clamp assay relative to control
Mus musculus [8] = experiment: Antidepressant-like activity in CD-1 mouse assessed as decrease in immobility time at 10 mg/kg, ip treated for 30 mins and measured for 4 mins by forced swim test; format: functional, organism-based
[9] = system: Alpha-1 adrenergic receptor (Rattus norvegicus); experiment: Displacement of [3H]-prazosin from rat cortex alpha1 adrenergic receptor incubated for 30 mins by microbeta scintillation counting method
Mus musculus [10] = experiment: Induction of hypothermia in CD-1 mouse assessed as change in body temperature at 20 mg/kg, ip measured after 90 mins by thermometric method; format: functional, organism-based
hERG (KCNH2) [11] = molecular target: T2, hERG (KCNH2); experiment: Inhibition of human ERG at 0.1 uM by automated patch-clamp assay relative to control
Mus musculus [12] = experiment: Induction of hypothermia in CD-1 mouse assessed as change in body temperature at 10 mg/kg, ip measured after 30 mins by thermometric method; format: functional, organism-based
Mus musculus [13] = experiment: Induction of hypothermia in CD-1 mouse assessed as change in body temperature at 10 mg/kg, ip measured after 90 mins by thermometric method; format: functional, organism-based
[14] = Half life in human liver microsomes at 1 uM measured for 5 to 30 mins in presence of NADPH by LC-MS/MS analysis; format: ADME, Microsome
Mus musculus [15] = experiment: Induction of hypothermia in CD-1 mouse assessed as change in body temperature at 5 mg/kg, ip measured after 60 mins by thermometric method; format: functional, organism-based
Mus musculus [16] = experiment: Induction of hypothermia in CD-1 mouse assessed as change in body temperature at 10 mg/kg, ip measured after 60 mins by thermometric method; format: functional, organism-based
Mus musculus [17] = experiment: Induction of hypothermia in CD-1 mouse assessed as change in body temperature at 10 mg/kg, ip pretreated for 30 mins with 5-HT1AR antagonist WAY100635 followed by compound treatment and measured after 30 mins by thermometric method; format: functional, organism-based
Mus musculus [18] = experiment: Antidepressant-like activity in CD-1 mouse at 10 mg/kg, ip treated for 30 mins and measured for 4 mins by forced swim test
hERG (KCNH2) [19] = molecular target: T2, hERG (KCNH2); experiment: Inhibition of human ERG at 10 uM by automated patch-clamp assay relative to control
Mus musculus [20] = experiment: Induction of hypothermia in CD-1 mouse assessed as change in body temperature at 15 mg/kg, ip measured after 90 mins by thermometric method (reference value: -0.3 to 0.3 deg C); format: functional, organism-based
Mus musculus [21] = experiment: Induction of hypothermia in CD-1 mouse assessed as change in body temperature at 10 mg/kg, ip pretreated for 60 mins with 5-HT1AR antagonist WAY100635 followed by compound treatment and measured after 30 mins by thermometric method; format: functional, organism-based
Mus musculus [22] = experiment: Induction of hypothermia in CD-1 mouse assessed as change in body temperature at 15 mg/kg, ip measured after 120 mins by thermometric method (reference value: -0.1 to 0.3 deg C); format: functional, organism-based
Mus musculus [23] = experiment: Induction of hypothermia in CD-1 mouse assessed as change in body temperature at 20 mg/kg, ip measured after 120 mins by thermometric method; format: functional, organism-based
Mus musculus [24] = experiment: Induction of hypothermia in CD-1 mouse assessed as change in body temperature at 5 mg/kg, ip measured after 30 mins by thermometric method; format: functional, organism-based
Mus musculus [25] = experiment: Induction of hypothermia in CD-1 mouse assessed as change in body temperature at 20 mg/kg, ip measured after 60 mins by thermometric method; format: functional, organism-based
Mus musculus [26] = experiment: Induction of hypothermia in CD-1 mouse assessed as change in body temperature at 5 mg/kg, ip measured after 120 mins by thermometric method; format: functional, organism-based
[27] = molecular target: T3, 5-hydroxytryptamine receptor 1A (Homo sapiens, UniProt P08908)
T3 sequence (P08908 whole entry): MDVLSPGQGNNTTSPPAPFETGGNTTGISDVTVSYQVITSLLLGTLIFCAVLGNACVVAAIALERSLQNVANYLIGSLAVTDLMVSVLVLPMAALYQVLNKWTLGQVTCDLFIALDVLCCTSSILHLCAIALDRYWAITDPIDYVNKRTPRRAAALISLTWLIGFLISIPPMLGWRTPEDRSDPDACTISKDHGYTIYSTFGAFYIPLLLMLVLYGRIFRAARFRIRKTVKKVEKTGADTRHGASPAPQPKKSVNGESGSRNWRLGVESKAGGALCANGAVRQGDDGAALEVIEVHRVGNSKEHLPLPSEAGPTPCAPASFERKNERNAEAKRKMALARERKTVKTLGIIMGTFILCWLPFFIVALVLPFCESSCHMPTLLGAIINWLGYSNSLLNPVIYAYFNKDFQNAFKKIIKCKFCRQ

[28] = molecular target: 5-hydroxytryptamine receptor 7 (Homo sapiens, UniProt P34969); experiment: Displacement of [3H]-5-CT from human 5HT7 receptor expressed in HEK293 cells incubated for 1 hr by liquid scintillation counting method; format: cell-based
[29] = molecular target: 5-hydroxytryptamine receptor 2B (Homo sapiens, UniProt P41595); experiment: Binding affinity to 5-HT2BR (unknown origin)
D(2) dopamine receptor = D(2) dopamine receptor (Homo sapiens, UniProt P14416); experiment: Displacement of [3H]-raclopride from human D2L receptor expressed in HEK293 cells incubated for 1 hr by liquid scintillation counting method; format: cell-based
Chain of D(2) dopamine receptor (P14416 whole entry): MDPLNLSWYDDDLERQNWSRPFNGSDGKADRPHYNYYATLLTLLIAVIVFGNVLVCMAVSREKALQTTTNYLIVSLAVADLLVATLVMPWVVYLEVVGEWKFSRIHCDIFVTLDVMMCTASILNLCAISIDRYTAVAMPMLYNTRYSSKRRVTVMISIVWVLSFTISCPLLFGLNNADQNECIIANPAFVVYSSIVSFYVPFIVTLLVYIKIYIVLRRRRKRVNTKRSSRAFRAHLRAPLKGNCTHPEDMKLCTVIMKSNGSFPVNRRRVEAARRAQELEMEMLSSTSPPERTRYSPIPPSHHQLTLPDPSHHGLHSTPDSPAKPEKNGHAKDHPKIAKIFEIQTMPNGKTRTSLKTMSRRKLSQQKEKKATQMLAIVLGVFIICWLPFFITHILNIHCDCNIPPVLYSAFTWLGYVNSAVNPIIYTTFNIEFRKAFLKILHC

T2 sequence (Q12809 whole entry): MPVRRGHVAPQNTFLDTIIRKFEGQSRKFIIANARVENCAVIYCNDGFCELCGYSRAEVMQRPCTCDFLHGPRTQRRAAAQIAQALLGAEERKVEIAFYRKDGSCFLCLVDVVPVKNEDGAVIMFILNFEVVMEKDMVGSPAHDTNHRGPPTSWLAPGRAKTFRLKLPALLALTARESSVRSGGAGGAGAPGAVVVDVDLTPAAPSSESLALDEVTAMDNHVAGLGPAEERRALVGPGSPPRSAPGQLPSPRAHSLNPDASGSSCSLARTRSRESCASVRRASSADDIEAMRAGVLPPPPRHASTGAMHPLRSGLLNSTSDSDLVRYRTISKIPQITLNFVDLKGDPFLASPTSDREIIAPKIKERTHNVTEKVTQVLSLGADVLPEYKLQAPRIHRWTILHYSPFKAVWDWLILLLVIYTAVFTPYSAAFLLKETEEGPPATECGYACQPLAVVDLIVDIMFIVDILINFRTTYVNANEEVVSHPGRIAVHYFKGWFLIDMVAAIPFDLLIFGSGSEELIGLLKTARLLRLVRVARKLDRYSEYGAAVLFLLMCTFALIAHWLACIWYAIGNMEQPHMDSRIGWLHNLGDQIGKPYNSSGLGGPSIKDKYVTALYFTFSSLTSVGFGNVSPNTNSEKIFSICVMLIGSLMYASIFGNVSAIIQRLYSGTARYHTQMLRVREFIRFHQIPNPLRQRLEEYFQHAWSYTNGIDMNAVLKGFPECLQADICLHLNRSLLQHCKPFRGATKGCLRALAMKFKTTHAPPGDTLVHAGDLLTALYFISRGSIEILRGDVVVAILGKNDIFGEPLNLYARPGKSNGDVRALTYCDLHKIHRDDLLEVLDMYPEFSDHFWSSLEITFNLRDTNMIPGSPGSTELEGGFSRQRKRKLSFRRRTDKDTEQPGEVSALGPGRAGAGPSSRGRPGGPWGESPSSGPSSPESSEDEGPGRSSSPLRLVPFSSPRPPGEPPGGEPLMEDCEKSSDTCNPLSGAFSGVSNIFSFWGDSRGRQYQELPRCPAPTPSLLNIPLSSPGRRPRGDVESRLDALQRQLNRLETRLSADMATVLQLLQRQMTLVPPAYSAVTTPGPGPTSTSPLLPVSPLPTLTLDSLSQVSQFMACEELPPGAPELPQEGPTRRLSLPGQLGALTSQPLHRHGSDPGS
Chain of 5-hydroxytryptamine receptor 2B (P41595 whole entry): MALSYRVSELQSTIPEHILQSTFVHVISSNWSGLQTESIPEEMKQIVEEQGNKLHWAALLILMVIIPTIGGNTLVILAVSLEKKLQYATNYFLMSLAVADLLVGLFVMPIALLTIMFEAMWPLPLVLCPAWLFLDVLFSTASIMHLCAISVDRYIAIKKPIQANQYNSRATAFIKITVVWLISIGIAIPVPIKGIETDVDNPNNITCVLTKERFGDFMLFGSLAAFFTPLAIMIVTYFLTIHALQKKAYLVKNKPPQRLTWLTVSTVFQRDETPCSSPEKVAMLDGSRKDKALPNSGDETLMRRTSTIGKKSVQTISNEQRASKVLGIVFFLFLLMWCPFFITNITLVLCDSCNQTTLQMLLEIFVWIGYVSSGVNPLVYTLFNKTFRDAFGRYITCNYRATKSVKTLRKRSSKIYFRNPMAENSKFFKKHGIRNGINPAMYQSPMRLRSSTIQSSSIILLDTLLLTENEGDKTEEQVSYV
Chain of 5-hydroxytryptamine receptor 7 (P34969 whole entry): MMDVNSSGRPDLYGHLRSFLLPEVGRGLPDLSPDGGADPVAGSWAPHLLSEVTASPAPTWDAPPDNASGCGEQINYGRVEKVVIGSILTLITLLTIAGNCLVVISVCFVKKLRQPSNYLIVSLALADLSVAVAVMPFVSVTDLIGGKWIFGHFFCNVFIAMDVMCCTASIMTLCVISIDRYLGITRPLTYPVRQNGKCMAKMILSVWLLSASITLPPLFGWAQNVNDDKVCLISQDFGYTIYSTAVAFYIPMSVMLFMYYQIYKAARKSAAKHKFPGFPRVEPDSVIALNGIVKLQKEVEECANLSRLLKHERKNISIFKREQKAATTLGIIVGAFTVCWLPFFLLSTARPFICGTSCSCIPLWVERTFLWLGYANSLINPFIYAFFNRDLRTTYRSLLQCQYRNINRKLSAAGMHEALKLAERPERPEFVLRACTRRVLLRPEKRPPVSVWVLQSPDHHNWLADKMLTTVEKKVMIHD

CC[C@@H](CO)NC(=O)[C@@H]1C=C2c3cccc4c3c(cn4C)C[C@H]2N(C)C1 [METHYSERGIDE MALEATE] gave a Ki [1] of 0.794 nM.
For O=C1CC(c2c[nH]c3ccccc23)C(=O)N1CCCCN1CCC(c2c[nH]c3ccc(F)cc23)CC1 (stereo not given), the deltaT (Mus musculus [2]) was -0.8 °C, the deltaT (Mus musculus [3]) was -2.2 °C and the deltaT (Mus musculus [4]) was -2 °C. For the same compound, the deltaT (Mus musculus [5]) was 0.2 °C, the deltaT (Mus musculus [6]) was 0.5 °C and the inhibition at 1 µM (hERG (KCNH2) [7]) was 84.7%. For the same compound, the Activity (Mus musculus [8]) was “Active”, the Activity [9] was “Active” and the deltaT (Mus musculus [10]) was -0.4 °C. It also gave an inhibition at 0.1 µM (hERG (KCNH2) [11]) of 45.1%, a deltaT (Mus musculus [12]) of -1.4 °C and a deltaT (Mus musculus [13]) of 0.1 °C. It also gave a half-life at 1 µM [14] of 11.5 min, a deltaT (Mus musculus [15]) of 0.4 °C and a deltaT (Mus musculus [16]) of -0.5 °C. The deltaT (Mus musculus [17]) was -0.1 °C, the Activity (Mus musculus [18]) was “Active” and the inhibition at 10 µM (hERG (KCNH2) [19]) was 96.4%. It also gave a deltaT (Mus musculus [20]) of 0 °C, a deltaT (Mus musculus [21]) of 0.7 °C and a deltaT (Mus musculus [22]) of 0.3 °C. The deltaT (Mus musculus [23]) was -0.3 °C, the deltaT (Mus musculus [24]) was 0.3 °C and the deltaT (Mus musculus [25]) was -1 °C. The deltaT (Mus musculus [26]) was 0.2 °C.
Compound O=c1ccc2ccc(OCCCCN3CCN(c4cccc5sccc45)CC3)cc2[nH]1 [BREXPIPRAZOLE] has a Ki [27] of 0.12 nM, a Ki [28] of 3.7 nM and a Ki [29] of 0.398 nM. It also gave a Ki (D(2) dopamine receptor) of 0.3 nM.

Reference: ChEMBL document CHEMBL4311986, “Synthesis and biological evaluation of new multi-target 3-(1H-indol-3-yl)pyrrolidine-2,5-dione derivatives with potential antidepressant effect” (Eur J Med Chem, 2019)
